Series [1] is described as follows: Clearance in CD-1 mouse at 5 mg/kg, iv. In kind it is ADME, organism-based. The settings on record: in vivo.
A short description of series [2]: Volume of distribution in CD-1 mouse at 5 mg/kg, iv. The series is classed as ADME, organism-based. As to conditions: in vivo; call rule not given here.
Series [3] has as its target T1, Lysine-specific demethylase 4C (Homo sapiens, UniProt Q9H3R0).
T1 sequence (Q9H3R0 whole entry): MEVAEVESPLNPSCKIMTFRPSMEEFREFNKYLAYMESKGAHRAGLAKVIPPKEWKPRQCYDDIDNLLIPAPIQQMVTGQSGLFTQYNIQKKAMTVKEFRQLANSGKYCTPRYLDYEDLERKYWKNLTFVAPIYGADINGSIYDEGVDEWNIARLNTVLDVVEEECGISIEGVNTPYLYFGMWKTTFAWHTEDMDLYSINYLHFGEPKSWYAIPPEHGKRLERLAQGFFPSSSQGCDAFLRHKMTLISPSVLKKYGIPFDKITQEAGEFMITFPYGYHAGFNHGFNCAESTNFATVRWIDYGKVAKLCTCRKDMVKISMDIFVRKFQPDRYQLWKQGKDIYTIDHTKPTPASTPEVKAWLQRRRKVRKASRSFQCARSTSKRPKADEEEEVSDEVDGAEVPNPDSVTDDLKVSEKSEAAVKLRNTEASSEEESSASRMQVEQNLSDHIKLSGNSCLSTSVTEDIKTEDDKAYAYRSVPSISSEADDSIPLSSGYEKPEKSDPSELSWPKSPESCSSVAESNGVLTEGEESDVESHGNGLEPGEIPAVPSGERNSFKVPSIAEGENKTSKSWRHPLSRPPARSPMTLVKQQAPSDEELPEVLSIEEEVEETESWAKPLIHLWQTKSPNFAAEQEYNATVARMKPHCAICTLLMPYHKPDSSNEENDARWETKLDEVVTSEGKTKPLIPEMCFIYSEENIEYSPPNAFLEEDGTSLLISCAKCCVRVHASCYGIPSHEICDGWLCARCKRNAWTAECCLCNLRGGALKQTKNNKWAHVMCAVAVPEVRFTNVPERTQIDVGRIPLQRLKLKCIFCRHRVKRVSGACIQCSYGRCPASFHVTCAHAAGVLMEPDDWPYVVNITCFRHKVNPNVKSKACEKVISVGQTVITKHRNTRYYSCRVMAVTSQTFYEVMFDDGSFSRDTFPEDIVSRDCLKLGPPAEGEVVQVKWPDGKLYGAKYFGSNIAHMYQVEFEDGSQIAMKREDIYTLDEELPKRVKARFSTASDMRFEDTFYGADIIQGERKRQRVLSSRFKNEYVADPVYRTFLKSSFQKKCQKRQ
Description: Inhibition of KDM4C (unknown origin) preincubated with enzyme.

Series [4] has as its target Lysine-specific histone demethylase 1A (Homo sapiens, UniProt O60341). Description: Inhibition of KDM1A (unknown origin).
The target in series [5] is Lysine-specific demethylase 5A/5B (Homo sapiens, UniProt P29375+Q9UGL1). Description: Inhibition of KDM5A/KDM5B in human ZR-75-1 cells assessed as increase in H3K4me3 level after 72 hrs by fluorometric immunoassay. The series is classed as cell-based.
In series [6] the target is Voltage-gated inwardly rectifying potassium channel KCNH2 (Homo sapiens, UniProt Q12809). Put plainly: Inhibition of human ERG.
Series [7] is described as follows: Oral bioavailability in CD-1 mouse at 10 mg/kg. In kind it is ADME, organism-based. The settings on record: in vivo.
For series [8], the target named is T2, Lysine-specific demethylase 2B (Homo sapiens, UniProt Q8NHM5).
T2 sequence (Q8NHM5 whole entry): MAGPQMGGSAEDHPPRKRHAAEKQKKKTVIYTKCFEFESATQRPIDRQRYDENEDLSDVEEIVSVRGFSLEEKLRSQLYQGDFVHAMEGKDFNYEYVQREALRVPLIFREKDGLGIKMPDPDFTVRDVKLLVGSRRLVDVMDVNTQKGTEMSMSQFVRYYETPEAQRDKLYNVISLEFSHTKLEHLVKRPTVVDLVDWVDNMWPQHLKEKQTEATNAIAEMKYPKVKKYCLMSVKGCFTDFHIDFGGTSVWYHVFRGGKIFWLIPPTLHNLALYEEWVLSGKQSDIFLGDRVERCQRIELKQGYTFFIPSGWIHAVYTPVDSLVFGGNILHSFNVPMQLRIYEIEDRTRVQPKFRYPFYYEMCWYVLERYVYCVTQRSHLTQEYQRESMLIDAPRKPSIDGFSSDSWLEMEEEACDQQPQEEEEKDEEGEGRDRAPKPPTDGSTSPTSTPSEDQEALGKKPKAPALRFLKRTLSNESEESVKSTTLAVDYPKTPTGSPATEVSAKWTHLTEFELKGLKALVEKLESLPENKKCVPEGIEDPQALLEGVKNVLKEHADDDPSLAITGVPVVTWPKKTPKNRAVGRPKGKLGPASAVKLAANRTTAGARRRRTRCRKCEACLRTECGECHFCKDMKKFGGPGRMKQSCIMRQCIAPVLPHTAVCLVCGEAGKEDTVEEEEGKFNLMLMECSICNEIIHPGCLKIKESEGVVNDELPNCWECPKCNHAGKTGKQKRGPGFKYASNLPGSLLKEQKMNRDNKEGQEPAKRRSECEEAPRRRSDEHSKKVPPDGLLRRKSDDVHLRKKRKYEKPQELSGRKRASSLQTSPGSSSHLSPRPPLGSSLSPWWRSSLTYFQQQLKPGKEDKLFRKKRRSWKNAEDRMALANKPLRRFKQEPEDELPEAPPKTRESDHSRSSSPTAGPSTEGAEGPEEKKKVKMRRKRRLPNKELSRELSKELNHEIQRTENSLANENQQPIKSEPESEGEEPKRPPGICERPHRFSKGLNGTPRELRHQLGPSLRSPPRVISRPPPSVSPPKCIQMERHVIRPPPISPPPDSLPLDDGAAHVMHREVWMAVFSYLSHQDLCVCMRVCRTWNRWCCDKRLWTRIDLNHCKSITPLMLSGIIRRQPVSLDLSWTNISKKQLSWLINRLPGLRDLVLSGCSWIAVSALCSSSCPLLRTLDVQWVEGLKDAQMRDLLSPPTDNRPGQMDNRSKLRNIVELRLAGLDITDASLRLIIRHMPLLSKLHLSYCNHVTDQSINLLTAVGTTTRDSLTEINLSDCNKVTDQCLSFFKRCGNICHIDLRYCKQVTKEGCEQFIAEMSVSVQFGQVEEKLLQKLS
Description: Inhibition of KDM2B (unknown origin).

A short description of series [9]: Kinetic solubility of the compound. The series is classed as physicochemical.
In series [10] the target is Lysine-specific demethylase 6B (Homo sapiens, UniProt O15054). Description: Inhibition of KDM6B (unknown origin).
Series [11] relates to Mus musculus. Put plainly: In vivo inhibition of KDM5 in nude mouse xenografted with human MCF7 cells assessed as increase in H3K4me3 level in tumor at 75 mg/kg, po qd for 5 days measured at 1 hrs post last dose by Western blot analysis relative to control. In kind it is functional. (Xenograft models place foreign cells or tissue in a host animal.)
The target in series [12] is Lysine-specific demethylase 5B (Homo sapiens, UniProt Q9UGL1). Description: Inhibition of KDM5B (unknown origin) preincubated with enzyme.
Series [13] concerns the target Lysine-specific demethylase 5A (Homo sapiens, UniProt P29375). Put plainly: Inhibition of KDM5A (unknown origin) preincubated with enzyme.
Series [14] in a line: AUC in CD-1 mouse at 10 mg/kg, po. As to conditions: in vivo. In kind it is ADME, organism-based.

What is called clearance is a measure of how efficiently the substance is removed, as volume per time. A low value points to a low capacity for elimination. A word on the Vd: it is the apparent volume that relates the amount in the body to the concentration in plasma or blood. High values mean extensive tissue distribution, low ones confinement near the circulation. What is called IC50 is the point on the concentration scale where inhibition reaches its midpoint. A lower IC50 goes with greater potency in that assay. What is called EC50 is the concentration at which the effect is half-maximal. What is called bioavailability is the share of a dose that reaches the circulation, judged against a reference dose that is usually intravenous. Read a low bioavailability as poor availability. As usually defined, the AUC is the area under the concentration-time curve, a measure of exposure.

Lysine-specific demethylase 5B, sequence (Q9UGL1 whole entry): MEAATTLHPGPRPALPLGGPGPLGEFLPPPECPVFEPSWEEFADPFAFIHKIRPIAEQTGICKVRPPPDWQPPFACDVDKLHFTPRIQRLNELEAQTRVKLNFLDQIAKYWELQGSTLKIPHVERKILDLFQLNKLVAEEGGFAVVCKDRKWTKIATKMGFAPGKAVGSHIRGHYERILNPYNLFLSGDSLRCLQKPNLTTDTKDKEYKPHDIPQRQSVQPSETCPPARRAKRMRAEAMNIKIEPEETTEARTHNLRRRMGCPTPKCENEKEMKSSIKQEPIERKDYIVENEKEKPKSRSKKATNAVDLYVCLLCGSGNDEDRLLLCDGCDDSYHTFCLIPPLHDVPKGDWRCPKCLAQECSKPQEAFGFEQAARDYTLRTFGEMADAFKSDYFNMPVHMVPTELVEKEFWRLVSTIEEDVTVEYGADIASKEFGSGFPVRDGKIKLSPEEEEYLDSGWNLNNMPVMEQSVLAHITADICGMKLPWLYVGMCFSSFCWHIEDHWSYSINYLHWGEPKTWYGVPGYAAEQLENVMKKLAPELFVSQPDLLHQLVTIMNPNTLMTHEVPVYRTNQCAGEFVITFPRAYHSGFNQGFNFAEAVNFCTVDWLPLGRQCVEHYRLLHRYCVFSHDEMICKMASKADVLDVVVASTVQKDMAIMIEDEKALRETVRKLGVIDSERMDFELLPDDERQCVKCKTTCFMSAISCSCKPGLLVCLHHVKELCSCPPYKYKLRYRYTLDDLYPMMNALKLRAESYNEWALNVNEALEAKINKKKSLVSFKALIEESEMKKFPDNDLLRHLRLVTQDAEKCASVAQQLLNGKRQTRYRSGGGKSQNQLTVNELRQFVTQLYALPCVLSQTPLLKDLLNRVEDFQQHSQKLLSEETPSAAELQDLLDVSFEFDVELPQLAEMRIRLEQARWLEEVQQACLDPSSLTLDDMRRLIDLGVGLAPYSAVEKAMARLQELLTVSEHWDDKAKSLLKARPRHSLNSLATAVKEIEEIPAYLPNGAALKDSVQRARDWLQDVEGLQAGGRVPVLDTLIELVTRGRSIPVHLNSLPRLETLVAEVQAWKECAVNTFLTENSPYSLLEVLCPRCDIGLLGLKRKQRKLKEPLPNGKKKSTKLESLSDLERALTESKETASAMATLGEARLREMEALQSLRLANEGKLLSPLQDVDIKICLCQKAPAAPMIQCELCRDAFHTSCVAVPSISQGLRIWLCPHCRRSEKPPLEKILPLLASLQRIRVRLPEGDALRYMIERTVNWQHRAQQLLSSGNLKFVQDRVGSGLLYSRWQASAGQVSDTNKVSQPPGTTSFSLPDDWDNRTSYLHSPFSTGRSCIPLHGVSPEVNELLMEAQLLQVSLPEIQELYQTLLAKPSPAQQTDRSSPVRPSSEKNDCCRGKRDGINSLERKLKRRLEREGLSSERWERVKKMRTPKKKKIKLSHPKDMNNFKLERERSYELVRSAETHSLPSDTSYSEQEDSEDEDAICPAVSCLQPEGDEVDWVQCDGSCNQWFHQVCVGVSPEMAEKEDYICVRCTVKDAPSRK
Lysine-specific demethylase 6B, sequence (O15054 whole entry): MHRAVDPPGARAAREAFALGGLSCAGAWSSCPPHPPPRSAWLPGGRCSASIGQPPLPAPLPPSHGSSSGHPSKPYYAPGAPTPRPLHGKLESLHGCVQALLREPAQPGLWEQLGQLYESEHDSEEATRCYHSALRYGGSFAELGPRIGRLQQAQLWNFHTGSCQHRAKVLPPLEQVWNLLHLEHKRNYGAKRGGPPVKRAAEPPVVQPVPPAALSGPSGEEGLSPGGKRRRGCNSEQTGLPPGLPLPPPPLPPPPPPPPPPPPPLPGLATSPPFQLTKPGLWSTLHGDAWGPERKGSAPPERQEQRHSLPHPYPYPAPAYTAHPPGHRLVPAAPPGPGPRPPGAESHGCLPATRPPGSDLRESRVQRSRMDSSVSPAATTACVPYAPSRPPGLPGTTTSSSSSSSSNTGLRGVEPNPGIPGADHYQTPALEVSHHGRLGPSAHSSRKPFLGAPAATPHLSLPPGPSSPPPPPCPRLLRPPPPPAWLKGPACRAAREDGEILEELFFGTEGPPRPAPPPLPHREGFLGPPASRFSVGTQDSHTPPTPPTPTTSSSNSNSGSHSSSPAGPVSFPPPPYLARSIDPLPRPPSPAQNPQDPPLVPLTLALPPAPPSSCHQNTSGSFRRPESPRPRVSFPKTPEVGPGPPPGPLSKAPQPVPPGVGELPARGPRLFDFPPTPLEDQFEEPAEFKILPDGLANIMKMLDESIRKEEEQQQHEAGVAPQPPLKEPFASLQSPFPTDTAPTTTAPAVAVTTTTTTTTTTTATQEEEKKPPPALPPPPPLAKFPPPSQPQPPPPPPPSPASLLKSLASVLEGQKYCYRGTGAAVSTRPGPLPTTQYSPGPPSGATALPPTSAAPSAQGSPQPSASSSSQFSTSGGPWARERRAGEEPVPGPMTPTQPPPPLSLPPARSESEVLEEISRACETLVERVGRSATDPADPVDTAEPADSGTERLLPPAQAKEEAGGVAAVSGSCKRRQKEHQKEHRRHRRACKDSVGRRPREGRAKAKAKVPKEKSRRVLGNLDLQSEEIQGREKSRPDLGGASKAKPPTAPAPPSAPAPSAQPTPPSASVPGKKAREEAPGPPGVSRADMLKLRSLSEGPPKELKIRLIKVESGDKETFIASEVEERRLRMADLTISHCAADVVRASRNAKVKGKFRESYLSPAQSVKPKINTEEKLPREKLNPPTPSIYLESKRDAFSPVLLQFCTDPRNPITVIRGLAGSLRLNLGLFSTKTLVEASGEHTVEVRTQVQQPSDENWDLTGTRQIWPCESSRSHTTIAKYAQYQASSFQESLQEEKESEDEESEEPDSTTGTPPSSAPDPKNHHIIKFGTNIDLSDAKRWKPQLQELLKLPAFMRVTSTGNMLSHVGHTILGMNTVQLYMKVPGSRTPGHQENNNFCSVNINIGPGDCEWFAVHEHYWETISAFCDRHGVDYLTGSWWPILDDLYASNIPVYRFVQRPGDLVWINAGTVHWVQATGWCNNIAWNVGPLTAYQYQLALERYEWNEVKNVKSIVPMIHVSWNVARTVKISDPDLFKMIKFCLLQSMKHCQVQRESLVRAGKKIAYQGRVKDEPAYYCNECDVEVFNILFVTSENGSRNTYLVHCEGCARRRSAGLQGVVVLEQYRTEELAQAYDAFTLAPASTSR
Lysine-specific demethylase 5A, sequence (P29375 whole entry): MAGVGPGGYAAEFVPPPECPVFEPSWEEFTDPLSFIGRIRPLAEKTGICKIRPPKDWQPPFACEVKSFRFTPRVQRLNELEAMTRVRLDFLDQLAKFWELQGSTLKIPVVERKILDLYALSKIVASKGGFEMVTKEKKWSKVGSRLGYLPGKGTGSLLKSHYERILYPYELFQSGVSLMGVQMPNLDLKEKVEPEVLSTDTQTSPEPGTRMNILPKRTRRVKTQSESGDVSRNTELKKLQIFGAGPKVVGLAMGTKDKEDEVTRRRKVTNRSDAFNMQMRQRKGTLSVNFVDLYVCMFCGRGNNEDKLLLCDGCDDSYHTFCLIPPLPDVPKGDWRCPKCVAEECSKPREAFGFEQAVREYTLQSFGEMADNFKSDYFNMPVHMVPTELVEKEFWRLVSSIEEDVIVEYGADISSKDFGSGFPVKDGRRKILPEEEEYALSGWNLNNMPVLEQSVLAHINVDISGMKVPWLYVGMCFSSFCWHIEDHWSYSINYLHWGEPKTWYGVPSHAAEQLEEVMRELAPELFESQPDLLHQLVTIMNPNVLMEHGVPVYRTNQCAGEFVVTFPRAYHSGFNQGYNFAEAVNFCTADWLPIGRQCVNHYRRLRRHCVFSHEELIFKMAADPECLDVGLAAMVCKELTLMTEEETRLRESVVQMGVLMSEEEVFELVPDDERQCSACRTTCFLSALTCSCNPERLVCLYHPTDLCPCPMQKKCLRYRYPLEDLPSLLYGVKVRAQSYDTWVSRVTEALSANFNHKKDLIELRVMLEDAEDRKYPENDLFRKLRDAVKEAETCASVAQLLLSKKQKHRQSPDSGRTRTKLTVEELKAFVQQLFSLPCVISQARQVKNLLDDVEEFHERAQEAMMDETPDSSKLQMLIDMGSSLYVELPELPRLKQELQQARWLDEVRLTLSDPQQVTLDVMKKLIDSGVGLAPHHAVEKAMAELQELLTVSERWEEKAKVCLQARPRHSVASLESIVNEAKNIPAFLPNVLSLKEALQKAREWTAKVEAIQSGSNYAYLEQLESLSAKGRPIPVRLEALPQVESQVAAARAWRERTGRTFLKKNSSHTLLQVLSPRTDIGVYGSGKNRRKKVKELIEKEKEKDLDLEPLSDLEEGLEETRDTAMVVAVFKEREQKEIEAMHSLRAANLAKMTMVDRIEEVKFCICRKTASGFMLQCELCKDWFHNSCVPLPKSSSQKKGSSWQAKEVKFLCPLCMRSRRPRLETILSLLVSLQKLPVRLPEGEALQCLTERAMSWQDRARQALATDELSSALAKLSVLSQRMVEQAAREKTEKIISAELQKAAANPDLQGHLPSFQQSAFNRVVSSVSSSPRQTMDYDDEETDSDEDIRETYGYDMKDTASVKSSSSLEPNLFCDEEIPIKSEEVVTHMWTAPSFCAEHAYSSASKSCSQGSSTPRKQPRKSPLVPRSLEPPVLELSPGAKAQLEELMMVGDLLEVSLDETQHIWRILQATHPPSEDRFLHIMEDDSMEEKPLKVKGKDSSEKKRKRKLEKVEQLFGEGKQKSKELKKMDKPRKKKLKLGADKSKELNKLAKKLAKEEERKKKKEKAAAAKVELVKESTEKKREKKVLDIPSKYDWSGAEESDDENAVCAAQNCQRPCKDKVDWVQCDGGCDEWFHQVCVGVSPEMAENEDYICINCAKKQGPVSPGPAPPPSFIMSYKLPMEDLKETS

`Cc1cc(Cl)ccc1COc1ccnn1-c1cc(C(=O)O)ccn1` registered a clearance in series [1] of 0.126 L/h/kg. In series [2], this compound gave a Vd of 0.16 L/kg. The half-maximal inhibitory concentration (IC50) in [3] is 0.035 to 0.041 µM; in series [4], more than 40 µM; in series [8] it was 0.63 µM; in [10] it was 2.3 µM; in [12], 0.002 µM; in series [13] it was 0.013 µM. In series [5], the EC50 stood at 0.09 µM. The “inhibition (INH)” value in series [6] is “Not Active”. In series [7], this compound registered a bioavailability of 55%. Besides, in [9], the Kinetic_solubility entry is recorded as “Soluble”. In addition, the “fold change (FC)” value in series [11] is given as more than 4. For the same compound, the exposure (AUC) in series [14] came to 44 µg·h/mL.

Values taken from ChEMBL document CHEMBL4219204, “Structure-based design and discovery of potent and selective KDM5 inhibitors” (Bioorg Med Chem Lett, 2018).
